Data as given in PubChem BioAssay (NCI).
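Five concentrations, 48 hours, 96-well plates. The concentration for full growth arrest is given as TGI.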

Key:
Test in all cases: growth of human tumour cells (NCI), 48 h
786-0 renal = test system: 786-0 renal
A498 renal = test system: A498 renal
A549 NSCLC = test system: A549 NSCLC
ACHN renal = test system: ACHN renal
BT-549 breast = test system: BT-549 breast
CAKI-1 renal = test system: CAKI-1 renal
CCRF-CEM leukemia = test system: CCRF-CEM leukemia
COLO 205 colon = test system: COLO 205 colon
DU-145 prostate = test system: DU-145 prostate
EKVX NSCLC = test system: EKVX NSCLC
HCC-2998 colon = test system: HCC-2998 colon
HCT-116 colon = test system: HCT-116 colon
HCT-15 colon = test system: HCT-15 colon
HL-60(TB) leukemia = test system: HL-60(TB) leukemia
HOP-62 NSCLC = test system: HOP-62 NSCLC
HOP-92 NSCLC = test system: HOP-92 NSCLC
HS 578T breast = test system: HS 578T breast
HT29 colon = test system: HT29 colon
IGROV1 ovarian = test system: IGROV1 ovarian
K-562 leukemia = test system: K-562 leukemia
KM12 colon = test system: KM12 colon
LOX IMVI melanoma = test system: LOX IMVI melanoma
M14 melanoma = test system: M14 melanoma
MALME-3M melanoma = test system: MALME-3M melanoma
MCF7 breast = test system: MCF7 breast
MDA-MB-231 breast = test system: MDA-MB-231 breast
MDA-MB-435 = test system: MDA-MB-435
MDA-N = test system: MDA-N
MOLT-4 leukemia = test system: MOLT-4 leukemia
NCI-H226 lung = test system: NCI-H226 lung
NCI-H23 lung = test system: NCI-H23 lung
NCI-H460 lung = test system: NCI-H460 lung
NCI-H522 lung = test system: NCI-H522 lung
NCI/ADR-RES ovarian = test system: NCI/ADR-RES ovarian
OVCAR-3 ovarian = test system: OVCAR-3 ovarian
OVCAR-4 ovarian = test system: OVCAR-4 ovarian
OVCAR-5 ovarian = test system: OVCAR-5 ovarian
OVCAR-8 ovarian = test system: OVCAR-8 ovarian
PC-3 prostate = test system: PC-3 prostate
RPMI-8226 leukemia = test system: RPMI-8226 leukemia
RXF 393 renal = test system: RXF 393 renal
SF-268 CNS = test system: SF-268 CNS
SF-295 CNS = test system: SF-295 CNS
SF-539 CNS = test system: SF-539 CNS
SK-MEL-2 melanoma = test system: SK-MEL-2 melanoma
SK-MEL-28 melanoma = test system: SK-MEL-28 melanoma
SK-MEL-5 melanoma = test system: SK-MEL-5 melanoma
SK-OV-3 ovarian = test system: SK-OV-3 ovarian
SN12C renal = test system: SN12C renal
SNB-19 CNS = test system: SNB-19 CNS
SNB-75 CNS = test system: SNB-75 CNS
SR leukemia = test system: SR leukemia
SW-620 colon = test system: SW-620 colon
T-47D breast = test system: T-47D breast
TK-10 renal = test system: TK-10 renal
U251 CNS = test system: U251 CNS
UACC-257 melanoma = test system: UACC-257 melanoma
UO-31 renal = test system: UO-31 renal
DLD-1 colon = test system: DLD-1 colon
DMS 273 small cell lung = test system: DMS 273 small cell lung
HOP-18 NSCLC = test system: HOP-18 NSCLC
KM20L2 colon = test system: KM20L2 colon
LXFL 529 NSCLC = test system: LXFL 529 NSCLC
M19-MEL melanoma = test system: M19-MEL melanoma
UACC-62 melanoma = test system: UACC-62 melanoma
DMS 114 small cell lung = test system: DMS 114 small cell lung
SNB-78 CNS = test system: SNB-78 CNS

COC(=O)c1cc(C)ccc1CC(Cc1cccc(C)c1)C(=O)OC (configuration not stated) was tested, and the TGI (786-0 renal) was > 100 µM, the TGI (A498 renal) was > 100 µM and the TGI (A549 NSCLC) was > 100 µM. The TGI (ACHN renal) was > 100 µM, the TGI (BT-549 breast) was > 100 µM and the TGI (CAKI-1 renal) was > 100 µM. The TGI (CCRF-CEM leukemia) was > 100 µM, the TGI (COLO 205 colon) was > 100 µM and the TGI (DU-145 prostate) was > 100 µM. The TGI (EKVX NSCLC) was > 100 µM, the TGI (HCC-2998 colon) was > 100 µM and the TGI (HCT-116 colon) was > 100 µM. The TGI (HCT-15 colon) was > 100 µM, the TGI (HL-60(TB) leukemia) was > 100 µM and the TGI (HOP-62 NSCLC) was > 100 µM. For the same compound, the TGI (HOP-92 NSCLC) was > 100 µM, the TGI (HS 578T breast) was > 100 µM and the TGI (HT29 colon) was > 100 µM. For the same compound, the TGI (IGROV1 ovarian) was > 100 µM, the TGI (K-562 leukemia) was > 100 µM and the TGI (KM12 colon) was > 100 µM. For the same compound, the TGI (LOX IMVI melanoma) was > 100 µM, the TGI (M14 melanoma) was > 100 µM and the TGI (MALME-3M melanoma) was > 100 µM. For the same compound, the TGI (MCF7 breast) was > 100 µM, the TGI (MDA-MB-231 breast) was > 100 µM and the TGI (MDA-MB-435) was > 100 µM. The TGI (MDA-N) was > 100 µM, the TGI (MOLT-4 leukemia) was > 100 µM and the TGI (NCI-H226 lung) was > 100 µM. For the same compound, the TGI (NCI-H23 lung) was > 100 µM, the TGI (NCI-H460 lung) was > 100 µM and the TGI (NCI-H522 lung) was > 100 µM. For the same compound, the TGI (NCI/ADR-RES ovarian) was > 100 µM, the TGI (OVCAR-3 ovarian) was > 100 µM and the TGI (OVCAR-4 ovarian) was > 100 µM. For the same compound, the TGI (OVCAR-5 ovarian) was > 100 µM, the TGI (OVCAR-8 ovarian) was > 100 µM and the TGI (PC-3 prostate) was > 100 µM. The TGI (RPMI-8226 leukemia) was > 100 µM, the TGI (RXF 393 renal) was 73.6 µM and the TGI (SF-268 CNS) was 53.9 µM. For the same compound, the TGI (SF-295 CNS) was > 100 µM, the TGI (SF-539 CNS) was > 100 µM and the TGI (SK-MEL-2 melanoma) was > 100 µM. For the same compound, the TGI (SK-MEL-28 melanoma) was > 100 µM, the TGI (SK-MEL-5 melanoma) was > 100 µM and the TGI (SK-OV-3 ovarian) was 27.1 µM. For the same compound, the TGI (SN12C renal) was > 100 µM, the TGI (SNB-19 CNS) was > 100 µM and the TGI (SNB-75 CNS) was > 100 µM. For the same compound, the TGI (SR leukemia) was > 100 µM, the TGI (SW-620 colon) was > 100 µM and the TGI (T-47D breast) was > 100 µM. For the same compound, the TGI (TK-10 renal) was > 100 µM, the TGI (U251 CNS) was > 100 µM and the TGI (UACC-257 melanoma) was > 100 µM. For the same compound, the TGI (UO-31 renal) was > 100 µM.

With COC1=CC(=O)c2ccccc2C1(CCC=C(C)C)C1=NC(C)(C)CO1 (configuration not stated) the TGI (786-0 renal) was > 100 µM, the TGI (A549 NSCLC) was > 100 µM and the TGI (ACHN renal) was > 100 µM. For the same compound, the TGI (CAKI-1 renal) was > 100 µM, the TGI (CCRF-CEM leukemia) was > 100 µM and the TGI (COLO 205 colon) was > 100 µM. The TGI (DLD-1 colon) was > 100 µM, the TGI (DMS 273 small cell lung) was > 100 µM and the TGI (EKVX NSCLC) was > 100 µM. For the same compound, the TGI (HCT-116 colon) was > 100 µM, the TGI (HCT-15 colon) was > 100 µM and the TGI (HL-60(TB) leukemia) was 62.9 µM. The TGI (HOP-18 NSCLC) was > 100 µM, the TGI (HOP-62 NSCLC) was > 100 µM and the TGI (HOP-92 NSCLC) was > 100 µM. The TGI (HT29 colon) was > 100 µM, the TGI (IGROV1 ovarian) was > 100 µM and the TGI (K-562 leukemia) was > 100 µM. The TGI (KM12 colon) was > 100 µM, the TGI (KM20L2 colon) was > 100 µM and the TGI (LXFL 529 NSCLC) was > 100 µM. The TGI (M14 melanoma) was > 100 µM, the TGI (M19-MEL melanoma) was > 100 µM and the TGI (MALME-3M melanoma) was > 100 µM. For the same compound, the TGI (MOLT-4 leukemia) was > 100 µM, the TGI (NCI-H226 lung) was > 100 µM and the TGI (NCI-H23 lung) was > 100 µM. For the same compound, the TGI (NCI-H460 lung) was > 100 µM, the TGI (NCI-H522 lung) was > 100 µM and the TGI (OVCAR-3 ovarian) was > 100 µM. The TGI (OVCAR-4 ovarian) was > 100 µM, the TGI (OVCAR-8 ovarian) was > 100 µM and the TGI (RPMI-8226 leukemia) was > 100 µM. For the same compound, the TGI (RXF 393 renal) was > 100 µM, the TGI (SF-268 CNS) was > 100 µM and the TGI (SF-295 CNS) was > 100 µM. The TGI (SF-539 CNS) was > 100 µM, the TGI (SK-MEL-2 melanoma) was > 100 µM and the TGI (SK-MEL-28 melanoma) was > 100 µM. The TGI (SK-MEL-5 melanoma) was > 100 µM, the TGI (SK-OV-3 ovarian) was > 100 µM and the TGI (SN12C renal) was > 100 µM. The TGI (SNB-19 CNS) was > 100 µM, the TGI (SNB-75 CNS) was > 100 µM and the TGI (SR leukemia) was > 100 µM. For the same compound, the TGI (SW-620 colon) was > 100 µM, the TGI (TK-10 renal) was > 100 µM and the TGI (U251 CNS) was > 100 µM. The TGI (UACC-257 melanoma) was > 100 µM, the TGI (UACC-62 melanoma) was > 100 µM and the TGI (UO-31 renal) was > 100 µM.

For CC[C@H](C)N(CCN)C(=O)c1cc2ccccc2c(-c2ccccc2Cl)n1, the TGI (786-0 renal) was > 100 µM, the TGI (A498 renal) was 17.4 µM and the TGI (A549 NSCLC) was > 100 µM. The TGI (ACHN renal) was 28.1 µM, the TGI (CCRF-CEM leukemia) was 15.7 µM and the TGI (COLO 205 colon) was 17.9 µM. It also gave a TGI (DMS 114 small cell lung) of 28 µM, a TGI (DMS 273 small cell lung) of 27.6 µM and a TGI (EKVX NSCLC) of 25.4 µM. For the same compound, the TGI (HCC-2998 colon) was 9.06 µM, the TGI (HCT-116 colon) was 14.9 µM and the TGI (HCT-15 colon) was 16.1 µM. For the same compound, the TGI (HL-60(TB) leukemia) was 23.1 µM, the TGI (HOP-62 NSCLC) was 33.3 µM and the TGI (HT29 colon) was 20.5 µM. It also gave a TGI (IGROV1 ovarian) of 26.2 µM, a TGI (K-562 leukemia) of 12.6 µM and a TGI (KM12 colon) of 29.6 µM. For the same compound, the TGI (KM20L2 colon) was 26.6 µM, the TGI (LOX IMVI melanoma) was 27.7 µM and the TGI (LXFL 529 NSCLC) was 10.4 µM. For the same compound, the TGI (M14 melanoma) was 44.8 µM, the TGI (MOLT-4 leukemia) was 24.9 µM and the TGI (NCI-H226 lung) was 29.7 µM. For the same compound, the TGI (NCI-H23 lung) was 28.6 µM, the TGI (NCI-H460 lung) was 27.1 µM and the TGI (NCI-H522 lung) was 34 µM. It also gave a TGI (OVCAR-3 ovarian) of 34 µM, a TGI (OVCAR-4 ovarian) of 30.1 µM and a TGI (OVCAR-5 ovarian) of 27.9 µM. It also gave a TGI (OVCAR-8 ovarian) of 27.6 µM, a TGI (RPMI-8226 leukemia) of 32.4 µM and a TGI (RXF 393 renal) of 19.7 µM. The TGI (SF-268 CNS) was 7.81 µM, the TGI (SF-295 CNS) was 28.4 µM and the TGI (SF-539 CNS) was 6.5 µM. For the same compound, the TGI (SK-MEL-2 melanoma) was 33.5 µM, the TGI (SK-MEL-28 melanoma) was 27 µM and the TGI (SN12C renal) was 32.8 µM. It also gave a TGI (SNB-19 CNS) of 30.2 µM, a TGI (SNB-78 CNS) of 31.6 µM and a TGI (SR leukemia) of 28.1 µM. The TGI (SW-620 colon) was 30 µM, the TGI (TK-10 renal) was 25.5 µM and the TGI (U251 CNS) was 24.4 µM. The TGI (UACC-257 melanoma) was 3.37 µM, the TGI (UACC-62 melanoma) was 29.5 µM and the TGI (UO-31 renal) was 25.3 µM.
